Consider 10 compounds from article PMC11117333, “Design and synthesis of new dihydropyrimidine/sulphonamide hybrids as promising anti-inflammatory agents via dual mPGES-1/5-LOX inhibition” (Frontiers in Chemistry, 2024).

For orientation: IC50 means the point on the concentration scale where inhibition reaches its midpoint. The melting point is the temperature, or range, at which the solid turns liquid.

Several values for one entry are separate records, joined by “and”; a condition that tells them apart may be missing. Equal values may be shown once. Read-outs that look alike come from different tables or passages of the source. Marks after values point to notes of the source that are not given here.

One data set concerns PGE2. As to the kind of experiment: Rat serum PGE2 after carrageenan (ELISA). The format is in vivo. The settings on record: 4 hours after subcutaneous carrageenan; for PGE2 serum concentration: mean ± SE. The text has this:
Inhibiting PGE2 is a crucial strategy in anti-inflammatory therapy, playing a pivotal role in managing inflammation and its associated conditions.
(§1) In this study, specializing ELISA kits were used to determine the concentration of inflammatory cytokines PGE2, IL-6, and TNF-α. The study’s findings were examined in accordance with the instructions provided by the manufacturer, and measurements were taken based on the optical density at 450 nm.
In general terms: ELISA stands for enzyme-linked immunosorbent assay.

The test system of data set [1] is carrageen-induced paw edema. In words: Carrageenan-induced paw edema bioassay. The format is in vivo, rat. The arrangement: concentration or dose not given beside the values. The settings on record: for % Of edema inhibition 1 h: 1 h after carrageenan injection; for % Of edema inhibition 3 h: 3 h after carrageenan injection; for % Of edema inhibition 5 h: 5 h after carrageenan injection. On the procedure:
The compounds’ efficacy was measured as edema inhibition percentage (EI %) after 1, 3, and 5 h of carrageenan injection vs. the conventional medicine Celecoxib.
Compounds 3c, 3e, 3h, and 3j were chosen for in vivo anti-inflammatory testing using the carrageen-induced paw edema bioassay method described by [Winter et al, (1962)]. The compounds’ efficacy was measured as edema inhibition percentage (EI%) after 1, 3, and 5 h of carrageenan injection vs. the conventional medicine Celecoxib.

For a further data set, the target named is T1, soya bean 5-LOX (Glycine max, UniProt P08170).
T1 construct: purchased Cayman Chemical, Ann Arbor, Michigan, USA 760700
T1 sequence (P08170 1-839): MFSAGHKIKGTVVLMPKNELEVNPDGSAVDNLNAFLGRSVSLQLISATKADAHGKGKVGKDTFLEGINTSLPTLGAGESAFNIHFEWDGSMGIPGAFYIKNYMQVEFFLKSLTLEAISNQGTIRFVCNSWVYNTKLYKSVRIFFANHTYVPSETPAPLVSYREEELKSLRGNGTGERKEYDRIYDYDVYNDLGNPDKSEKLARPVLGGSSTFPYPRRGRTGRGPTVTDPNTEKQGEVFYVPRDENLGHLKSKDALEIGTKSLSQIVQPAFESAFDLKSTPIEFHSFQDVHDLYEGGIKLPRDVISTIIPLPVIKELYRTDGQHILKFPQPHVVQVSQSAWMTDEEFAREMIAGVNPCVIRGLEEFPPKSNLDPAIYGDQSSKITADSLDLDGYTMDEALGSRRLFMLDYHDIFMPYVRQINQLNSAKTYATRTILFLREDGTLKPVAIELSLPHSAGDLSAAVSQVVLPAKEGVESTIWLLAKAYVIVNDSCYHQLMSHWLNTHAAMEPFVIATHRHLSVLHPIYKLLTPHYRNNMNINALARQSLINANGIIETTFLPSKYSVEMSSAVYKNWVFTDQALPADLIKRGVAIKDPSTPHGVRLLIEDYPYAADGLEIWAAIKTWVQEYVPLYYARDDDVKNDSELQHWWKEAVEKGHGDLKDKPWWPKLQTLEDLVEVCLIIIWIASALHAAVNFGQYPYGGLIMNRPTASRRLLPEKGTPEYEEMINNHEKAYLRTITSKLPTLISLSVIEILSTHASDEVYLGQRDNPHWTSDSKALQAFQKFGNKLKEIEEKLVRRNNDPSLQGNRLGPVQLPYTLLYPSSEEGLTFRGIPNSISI
In words: 5-LOX enzyme assay (EIA kit, Cayman 760700). The format is biochemical. The text has this: The capacity of compounds 3a–j to inhibit the enzyme 5-lipoxygenase (5-LOX) has been investigated ([Youssif et al., 2019]).
The study used an enzyme immune assay (EIA) kit (catalogue no. 760700, Cayman Chemical, Ann Arbor, Michigan, USA) to evaluate the inhibitory activity of target analogues against soya bean 5-LOX, ensuring compliance with manufacturer’s instructions and protocols, and calculating IC50 values ([Roschek et al., 2009]).

The subject of a further data set is TNF-α. As to the kind of experiment: Rat serum TNF-α after carrageenan (ELISA). The format is in vivo. Conditions: for TNFα serum concentration: mean ± SE.
From the text: as §1

In a further data set the test system is IL-6. As to the kind of experiment: Rat serum IL-6 after carrageenan (ELISA). The format is in vivo. The settings on record: for IL-6 serum concentration: mean ± SE.
From the text: as §1

Data set [2] concerns the target T2, mPGES-1 (Homo sapiens, UniProt O14684).
T2 construct: microsomal fractions from IL-1β-stimulated A549 cells served as the enzyme source; endogenous in cells; host or cells: A549 cells (IL-1β-stimulated), microsomal fraction
T2 sequence (O14684 1-152): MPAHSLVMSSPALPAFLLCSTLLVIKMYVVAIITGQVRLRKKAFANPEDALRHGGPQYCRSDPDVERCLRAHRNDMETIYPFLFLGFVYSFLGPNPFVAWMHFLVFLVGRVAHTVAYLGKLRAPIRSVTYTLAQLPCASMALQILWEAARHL
In words: Cell-free mPGES-1 enzyme assay (microsomal fractions from IL-1β-stimulated A549 cells). The format is biochemical. Conditions: for remaining activity at 10 µM: 10 µM compound, read-out: mPGES-1 RA (%) 10 µM (residual activity percentage); for remaining activity at 10 µM / IC50: cell-free, A549 microsomes. Here is the method:
A cell-free assay was conducted to evaluate the capacity of compounds […] to act as inhibitors of mPGES-1. In this assay, microsomal fractions from IL-1β-stimulated A549 cells served as the enzyme source ([Gürses et al., 2021]). During the initial screening phase, compounds 3a–j were examined for their effects on mPGES-1 at a concentration of 10 µM.
Microsomal measures of A549 cells expressing mPGES-1 were made in accordance with prior research findings ([Koeberle et al., 2008]). These cells were cultivated in Dulbecco’s Modified Eagle Medium and resuspended in a homogenization buffer. Subsequently, the microsomes were subjected to pre-incubation with either assessed compounds or a carrier solution containing 0.1 percent DMSO. The enzymatic process was halted by introducing FeCl3, citric acid, and 11-PGE2 as an internal standard. The quantities of Prostaglandin E2 (PGE2) were measured via RP-HPLC methodologies.

Another data set has as its system rat intestinal mucosa. In words: Gastric ulcerogenic activity (macroscopic inspection). The format is in vivo. The arrangement: Score: Severity lesions: scale not given here. The settings on record: oral 10 mg/kg. On the procedure:
The two most common side effects of long-term NSAID use are gastrointestinal erosion and ulcers ([Hendawy et al., 2021]). As a result, we were curious about the ulcerogenic potential of the most efficacious drugs, 3e and 3j, when given orally. The ulcerogenic effects of 3e and 3j were assessed by macroscopic inspection of rat intestinal mucosa after oral administration of 10 mg/kg of 3e, 3j, indomethacin, and celecoxib ([Manivannan and Chaturvedi, 2011]).
The ulcerogenic effects of compounds 3e and 3j were evaluated by macroscopic examination of rat intestinal mucosa after oral administration of 10 mg/kg of these compounds and indomethacin and celecoxib ([Manivannan and Chaturvedi, 2011]). See Appendix A for details.

Data set [3] addresses T2, mPGES-1. The settings on record: cited from earlier work; for IC50: ref Lauro et al., 2014.
The subject of a further data set is 5-LOX. Conditions: cited from earlier work.
The subject of data set [4] is PGE2 production in A549 cells. The arrangement: method as in Kim et al., 2021. The settings on record: ref Kim et al., 2021; cited from earlier work.

Turning to `COc1ccc(C2NC(=S)NC(C)=C2C(=O)Nc2ccc(S(N)(=O)=O)cc2)cc1OC` (stereo not drawn) [Compound 3e, 4-[3,4-dimethoxyphenyl]-6-methyl-N-[4-sulfamoylphenyl]-2-thioxo-1,2,3,4-tetrahydropyrimidine-5-carboxamide], the melting point fell in the range of 272 to 274 °C. In the data set with PGE2, the PGE2 %inhibition is 72.70% and 73%; the PGE2 serum concentration is reported as 83.50 ± 2.30 ^b pg/mL. Moreover, in [1], the “% Of edema inhibition 1 h” value came to 35%, the “% Of edema inhibition 3 h” value is listed as 57% and the “% Of edema inhibition 5 h” value came out at 65%. The compound further gave an IC50 on soya bean 5-LOX of 2.07 µM. In the data set with TNF-α, the TNFα %inhibition is 67% and the TNFα serum concentration is recorded as 78.10 ± 2.20 ^b pg/mL. For the same compound, in the data set on IL-6, the IL-6 %inhibition is given as 75% and the IL-6 serum concentration was 94.10 ± 2.75 ^b pg/mL. In addition, on mPGES-1 [2], the remaining activity at 10 µM stood at 28.6% and the midpoint of inhibition, the IC50, lay at 0.97 µM. In addition, in the data set on rat intestinal mucosa, the “Score: No. of gastric ulcers” value amounted to 0.60 ± 0.01, the “Score: Severity lesions” value was found to be 1.00 ± 0.01 and the “Ulceration in the isolated rat stomach (in words)” value was “mild hyperemia but no widespread ulceration”.

In the case of `COc1ccc(C2NC(=O)NC(C)=C2C(=O)Nc2ccc(S(N)(=O)=O)cc2)cc1OC` (stereo not drawn) [Compound 3j, 4-[3,4-dimethoxyphenyl]-6-methyl-2-oxo-N-[4-sulfamoylphenyl]-1,2,3,4-tetrahydropyrimidine-5-carboxamide], the melting point lay in the range of 266 to 267 °C. In the data set on PGE2, the PGE2 %inhibition was 79.20% and 79%; the PGE2 serum concentration is 62.60 ± 2.75 ^b pg/mL. Besides, in [1], the “% Of edema inhibition 1 h” value is 38%, the “% Of edema inhibition 3 h” value was 60% and the “% Of edema inhibition 5 h” value is listed as 71%. Moreover, the IC50 against soya bean 5-LOX was 1.98 µM and 1.89 µM. In addition, in the data set with TNF-α, the TNFα %inhibition amounted to 71% and the TNFα serum concentration is 68.50 ± 2.00^bc pg/mL. Besides, in the data set with IL-6, the IL-6 %inhibition is recorded as 77% and the IL-6 serum concentration is recorded as 85.50 ± 2.35^bc pg/mL. Further, on mPGES-1 [2], the remaining activity at 10 µM stood at 24.7% and the IC50 amounted to 0.92 µM. The “fold more potent than the reference MK886 (mPGES-1)” value on mPGES-1 [2] (from IC50 values) came to 2.4 fold. For the same compound, in the data set with rat intestinal mucosa, the “Score: No. of gastric ulcers” value came out at 0, the “Score: Severity lesions” value came to 0 and the “Ulceration in the isolated rat stomach (in words)” value was “did not generate ulceration”.

`CC1=C(C(=O)OCc2ccccc2)C(c2ccc(-c3cccc(C(F)(F)F)c3)o2)NC(=O)N1CCC(=O)O` (stereo not drawn) [III]: the “fold higher activity than compound I (mPGES-1)” value on mPGES-1 [3] (ref Terracciano et al., 2015) is 10 fold.

Turning to `CCOC(=O)C1=C(C(=O)c2ccc(OC)cc2)C(c2ccc(-c3cccc(C(F)(F)F)c3)o2)NC(=O)N1C` (stereo not drawn) [II], the IC50 at mPGES-1 [3] is 7.56 ± 0.94 µM.

As to `CCOC(=O)CCSC1=NC(c2ccccc2)C=C(c2ccccc2)N1` (stereo not drawn) [IV], the “5-LOX % inhibition at 100 μg/mL” value in the data set with 5-LOX (100 μg/mL, ref Lokwani et al., 2015) was 51.84%. In addition, in the data set on 5-LOX (ref Lokwani et al., 2015), the IC50 was 19.1 µM.

With `CCOC(=O)C1=C(C(=O)c2ccc(OC)cc2)C(c2ccc(-c3cccc(C(F)(F)F)c3)o2)NC(=O)N1` (stereo not drawn) [I], on mPGES-1 [3], the IC50 was 4.16 ± 0.47 µM.

Turning to `O=C(Cc1cn(-c2ccccc2)nc1-c1ccc(Cl)cc1)NS(=O)(=O)c1ccc(Cl)cc1` [VIII], in the data set on 5-LOX (ref Elkady et al., 2012), the IC50 is 2.9 µM and the “folds more potent than lonazolac calcium against 5-LOX” value is reported as 20 fold. Further, the “folds more potent than lonazolac calcium against mPGES-1” value at mPGES-1 [3] (ref Elkady et al., 2012) is on record as 19 fold.

Regarding `COc1ccc2c(c1)c(CC(=O)NS(=O)(=O)c1ccc(C)cc1)c(C)n2C(=O)c1ccc(Cl)cc1` [VII], the half-inhibitory concentration (IC50) with 5-LOX (ref Elkady et al., 2012) was 2.9 µM.

With `O=C(Nc1ccc(OCCCCc2ccccc2)cc1)N(Cc1ccccc1)S(=O)(=O)c1ccc(Cl)cc1` [VI], in data set [4], the IC50 is 0.24 µM and the “fold more active than the standard inhibitor MK-886 (PGE2 production)” value is “about 9 fold”.

For the compound `COC(=O)C1=C(C)NC(Nc2cc(O)cc(Cl)c2)=NC1c1ccc(Cl)cc1` (stereo not drawn) [V], the 5-LOX % inhibition in the data set on 5-LOX (2.46 µM concentration, ref Venugopala et al., 2015) is reported as 81.19%.
